# From ChEMBL document CHEMBL5034009, “Second-Generation Dual FXR/sEH Modulators with Optimized Pharmacokinetics” (J Med Chem, 2021)
# The source made the active and inactive calls. No cut-off for these calls is given here.
# Test system: not listed separately
# Test: Metabolic stability in Sprague-Dawley rat liver microsomes assessed as intrinsic clearance at 10 uM preincubated with NADPH regenerating system for 5 mins followed by addition of microsome upto 60 mins by HPLC analysis
# Assay type: ADME
# Conditions: read-out: CLH
row,Compound,microsomal CLint at 10 µM [µL/min/mg]
1,CS(=O)(=O)Nc1ccc(CNC(=O)c2ccc(OC(F)(F)F)cc2)c(Cl)c1,9.1
2,CS(=O)(=O)Nc1ccc(CNC(=O)c2ccc(C34CC(C3)C4)cc2)c(Cl)c1,17
3,CS(=O)(=O)Nc1ccc(CNC(=O)c2ccc(C3(O)COC3)cc2)c(Cl)c1,5.4
4,CS(=O)(=O)Nc1ccc(CNC(=O)c2ccc(N3CCCC3)cc2)c(Cl)c1,17
5,COc1ccc(C(=O)NCc2ccc(NS(C)(=O)=O)cc2Cl)cc1,5
6,CCS(=O)(=O)Nc1ccc(CNC(=O)c2ccc(C(C)(C)C)cc2)c(Cl)c1,28
7,CS(=O)(=O)Nc1ccc(CNC(=O)c2ccc(C3(C(F)(F)F)CC3)cc2)c(Cl)c1,7.5
8,CC(C)S(=O)(=O)Nc1ccc(CNC(=O)c2ccc(C(C)(C)C)cc2)c(Cl)c1,23

# Results, then the compound that gave them:
row,microsomal CLint at 10 µM [µL/min/mg],Compound
1,8.6,CS(=O)(=O)Nc1ccc(CNC(=O)c2ccc(N3CCC3)cc2)c(Cl)c1
2,21,CC(C)(C)c1ccc(C(=O)NCc2ccc(NS(C)(=O)=O)cc2Cl)cc1
3,9.3,CC(C)(C)c1ccc(C(=O)NCc2c(F)cc(NS(C)(=O)=O)cc2F)cc1
4,9.8,CS(=O)(=O)Nc1ccc(CNC(=O)c2ccc(S(F)(F)(F)(F)F)cc2)c(Cl)c1
5,12,CC(C)Oc1ccc(C(=O)NCc2ccc(NS(C)(=O)=O)cc2Cl)cc1
6,22,CS(=O)(=O)Nc1ccc(CNC(=O)c2ccc(CC(F)(F)F)cc2)c(Cl)c1

# Target: T1, Bile acid receptor (Homo sapiens) (UniProt Q96RI1)
# T1 sequence (whole entry): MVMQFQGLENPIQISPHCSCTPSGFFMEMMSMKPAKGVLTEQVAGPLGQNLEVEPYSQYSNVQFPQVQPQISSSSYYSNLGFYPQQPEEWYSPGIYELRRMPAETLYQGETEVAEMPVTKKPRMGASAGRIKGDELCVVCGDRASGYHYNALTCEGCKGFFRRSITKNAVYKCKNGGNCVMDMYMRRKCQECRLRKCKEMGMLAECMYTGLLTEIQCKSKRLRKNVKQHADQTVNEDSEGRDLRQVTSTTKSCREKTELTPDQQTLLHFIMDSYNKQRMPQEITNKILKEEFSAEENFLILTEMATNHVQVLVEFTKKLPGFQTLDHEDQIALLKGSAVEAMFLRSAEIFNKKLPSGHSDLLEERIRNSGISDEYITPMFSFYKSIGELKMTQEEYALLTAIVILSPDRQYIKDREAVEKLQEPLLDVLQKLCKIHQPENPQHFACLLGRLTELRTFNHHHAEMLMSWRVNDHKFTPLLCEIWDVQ
# Test: Agonist activity at recombinant human full-length FXR expressed in HeLa cells co-expressing human RXRalpha at 30 uM after 24 hrs by Dual-Glo luciferase assay
# Assay type: cell-based
# Conditions: not given
row,Compound,Activity
1,CS(=O)(=O)Nc1ccc(CNC(=O)c2ccc(C3(O)COC3)cc2)c(Cl)c1,inactive
2,COc1ccc(C(=O)NCc2ccc(NS(C)(=O)=O)cc2Cl)cc1,inactive

# The next lines start with the values.
row,Activity,Compound
1,inactive,CC(C)(C)c1ccc(C(=O)NCc2c(F)cc(NS(C)(=O)=O)cc2F)cc1
2,inactive,CS(=O)(=O)Nc1ccc(CNC(=O)c2ccc(S(F)(F)(F)(F)F)cc2)c(Cl)c1

# Target: T2, Bile acid receptor (Homo sapiens, UniProt Q96RI1)
# T2 sequence (Q96RI1 whole entry): T1 sequence (whole entry)
# Conditions: not given
row,Compound,EC50 [nM]
1,CS(=O)(=O)Nc1ccc(CNC(=O)c2ccc(OC(F)(F)F)cc2)c(Cl)c1,1090
2,CS(=O)(=O)Nc1ccc(CNC(=O)c2ccc(C34CC(C3)C4)cc2)c(Cl)c1,560
3,CCS(=O)(=O)Nc1ccc(CNC(=O)c2ccc(C(C)(C)C)cc2)c(Cl)c1,500

# Other lines, results leading:
row,EC50 [nM],Compound
1,40,CC(C)(C)c1ccc(C(=O)NCc2ccc(N)cc2Cl)cc1
2,13000,CS(=O)(=O)Nc1ccc(CNC(=O)c2ccc(N3CCC3)cc2)c(Cl)c1
3,400,CC(C)Oc1ccc(C(=O)NCc2ccc(NS(C)(=O)=O)cc2Cl)cc1
4,4000,CS(=O)(=O)Nc1ccc(CNC(=O)c2ccc(CC(F)(F)F)cc2)c(Cl)c1

# Target: T3, Bifunctional epoxide hydrolase 2 (Homo sapiens, UniProt P34913)
# T3 sequence (P34913 whole entry): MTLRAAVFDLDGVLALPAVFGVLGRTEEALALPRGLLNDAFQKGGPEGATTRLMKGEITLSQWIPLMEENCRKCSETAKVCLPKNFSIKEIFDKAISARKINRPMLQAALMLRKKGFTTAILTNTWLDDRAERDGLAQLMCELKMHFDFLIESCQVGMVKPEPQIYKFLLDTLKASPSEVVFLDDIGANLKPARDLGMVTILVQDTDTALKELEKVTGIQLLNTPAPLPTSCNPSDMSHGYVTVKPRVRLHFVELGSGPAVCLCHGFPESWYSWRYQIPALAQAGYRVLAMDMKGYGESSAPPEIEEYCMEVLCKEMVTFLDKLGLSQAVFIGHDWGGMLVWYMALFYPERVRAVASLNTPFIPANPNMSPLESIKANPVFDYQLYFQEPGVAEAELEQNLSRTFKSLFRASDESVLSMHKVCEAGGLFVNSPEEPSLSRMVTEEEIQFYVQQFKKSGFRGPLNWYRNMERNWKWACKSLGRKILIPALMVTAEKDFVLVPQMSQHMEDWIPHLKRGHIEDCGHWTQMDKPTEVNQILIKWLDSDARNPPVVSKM
# Test: Inhibition of recombinant human sEH using PHOME as substrate preincubated for 30 mins followed by substrate addition and measured after 30 mins by fluoresence-based assay
# Conditions: not given
row,Compound,IC50 [nM]
1,CS(=O)(=O)Nc1ccc(CNC(=O)c2ccc(OC(F)(F)F)cc2)c(Cl)c1,22
2,CS(=O)(=O)Nc1ccc(CNC(=O)c2ccc(C34CC(C3)C4)cc2)c(Cl)c1,49
3,CS(=O)(=O)Nc1ccc(CNC(=O)c2ccc(C3(O)COC3)cc2)c(Cl)c1,111
4,COc1ccc(C(=O)NCc2ccc(NS(C)(=O)=O)cc2Cl)cc1,38
5,CCS(=O)(=O)Nc1ccc(CNC(=O)c2ccc(C(C)(C)C)cc2)c(Cl)c1,6.1
6,CS(=O)(=O)Nc1ccc(CNC(=O)c2ccc(C3(C(F)(F)F)CC3)cc2)c(Cl)c1,4.3
7,CC(C)S(=O)(=O)Nc1ccc(CNC(=O)c2ccc(C(C)(C)C)cc2)c(Cl)c1,11.2

# The next lines start with the values.
row,IC50 [nM],Compound
1,94,CS(=O)(=O)Nc1ccc(CNC(=O)c2ccc(N3CCC3)cc2)c(Cl)c1
2,85,CC(C)(C)c1ccc(C(=O)NCc2c(F)cc(NS(C)(=O)=O)cc2F)cc1
3,10,CS(=O)(=O)Nc1ccc(CNC(=O)c2ccc(S(F)(F)(F)(F)F)cc2)c(Cl)c1
4,12,CC(C)Oc1ccc(C(=O)NCc2ccc(NS(C)(=O)=O)cc2Cl)cc1
5,13,CS(=O)(=O)Nc1ccc(CNC(=O)c2ccc(CC(F)(F)F)cc2)c(Cl)c1

# Test system: not listed separately
# Test: Metabolic stability in Sprague-Dawley rat liver microsomes assessed as half life at 10 uM preincubated with NADPH regenerating system for 5 mins followed by addition of microsome upto 60 mins by HPLC analysis
# Assay type: ADME
# Conditions: not given
row,Compound,half-life at 10 µM [min]
1,CS(=O)(=O)Nc1ccc(CNC(=O)c2ccc(OC(F)(F)F)cc2)c(Cl)c1,148
2,CS(=O)(=O)Nc1ccc(CNC(=O)c2ccc(C34CC(C3)C4)cc2)c(Cl)c1,81
3,CS(=O)(=O)Nc1ccc(CNC(=O)c2ccc(C3(O)COC3)cc2)c(Cl)c1,254
4,CS(=O)(=O)Nc1ccc(CNC(=O)c2ccc(N3CCCC3)cc2)c(Cl)c1,77
5,COc1ccc(C(=O)NCc2ccc(NS(C)(=O)=O)cc2Cl)cc1,270
6,CCS(=O)(=O)Nc1ccc(CNC(=O)c2ccc(C(C)(C)C)cc2)c(Cl)c1,47
7,CS(=O)(=O)Nc1ccc(CNC(=O)c2ccc(C3(C(F)(F)F)CC3)cc2)c(Cl)c1,182
8,CC(C)S(=O)(=O)Nc1ccc(CNC(=O)c2ccc(C(C)(C)C)cc2)c(Cl)c1,59

# The remaining lines, values ahead:
row,half-life at 10 µM [min],Compound
1,157,CS(=O)(=O)Nc1ccc(CNC(=O)c2ccc(N3CCC3)cc2)c(Cl)c1
2,65,CC(C)(C)c1ccc(C(=O)NCc2ccc(NS(C)(=O)=O)cc2Cl)cc1
3,145,CC(C)(C)c1ccc(C(=O)NCc2c(F)cc(NS(C)(=O)=O)cc2F)cc1
4,138,CS(=O)(=O)Nc1ccc(CNC(=O)c2ccc(S(F)(F)(F)(F)F)cc2)c(Cl)c1
5,111,CC(C)Oc1ccc(C(=O)NCc2ccc(NS(C)(=O)=O)cc2Cl)cc1
6,62,CS(=O)(=O)Nc1ccc(CNC(=O)c2ccc(CC(F)(F)F)cc2)c(Cl)c1

# Test system: HepG2
# Test: Cytotoxicity against human HepG2 cells assessed as cell viability at 100 uM by WST-1 assay
# Assay type: cell-based
# Conditions: hepg2, 100 µM
row,Compound,Activity
1,CS(=O)(=O)Nc1ccc(CNC(=O)c2ccc(C3(C(F)(F)F)CC3)cc2)c(Cl)c1,Non-Toxic

# Test system: not listed separately
# Test: Aqueous solubility of compound
# Assay type: physicochemical
# Conditions: buffer
row,Compound,solubility [µg/mL]
1,CS(=O)(=O)Nc1ccc(CNC(=O)c2ccc(C3(C(F)(F)F)CC3)cc2)c(Cl)c1,2.9
